SMILES strings stand for the structures. pIC50: −log10 of the molar value.

From patent US9388189B2, “Pyrrolotriazinone derivatives as PI3K inhibitors” (ALMIRALL, S.A., priority 2012, dated 2016) come the findings set out here.

For the assay, the target named is PI3Kδ (PI3Kd) (Homo sapiens (Human), UniProt O00329). The assay can be described thus: PI3K HTRF enzymatic inhibition assay (cell-free), delta isoform. To be noted: read-out: IC50 PI3Kd HTRF; recombinant PI3K delta, [ATP] 15 μM, [PIP2] 2 μM, 30 min preincubation.
PI3Kδ (PI3Kd), sequence (O00329 whole entry, canonical isoform): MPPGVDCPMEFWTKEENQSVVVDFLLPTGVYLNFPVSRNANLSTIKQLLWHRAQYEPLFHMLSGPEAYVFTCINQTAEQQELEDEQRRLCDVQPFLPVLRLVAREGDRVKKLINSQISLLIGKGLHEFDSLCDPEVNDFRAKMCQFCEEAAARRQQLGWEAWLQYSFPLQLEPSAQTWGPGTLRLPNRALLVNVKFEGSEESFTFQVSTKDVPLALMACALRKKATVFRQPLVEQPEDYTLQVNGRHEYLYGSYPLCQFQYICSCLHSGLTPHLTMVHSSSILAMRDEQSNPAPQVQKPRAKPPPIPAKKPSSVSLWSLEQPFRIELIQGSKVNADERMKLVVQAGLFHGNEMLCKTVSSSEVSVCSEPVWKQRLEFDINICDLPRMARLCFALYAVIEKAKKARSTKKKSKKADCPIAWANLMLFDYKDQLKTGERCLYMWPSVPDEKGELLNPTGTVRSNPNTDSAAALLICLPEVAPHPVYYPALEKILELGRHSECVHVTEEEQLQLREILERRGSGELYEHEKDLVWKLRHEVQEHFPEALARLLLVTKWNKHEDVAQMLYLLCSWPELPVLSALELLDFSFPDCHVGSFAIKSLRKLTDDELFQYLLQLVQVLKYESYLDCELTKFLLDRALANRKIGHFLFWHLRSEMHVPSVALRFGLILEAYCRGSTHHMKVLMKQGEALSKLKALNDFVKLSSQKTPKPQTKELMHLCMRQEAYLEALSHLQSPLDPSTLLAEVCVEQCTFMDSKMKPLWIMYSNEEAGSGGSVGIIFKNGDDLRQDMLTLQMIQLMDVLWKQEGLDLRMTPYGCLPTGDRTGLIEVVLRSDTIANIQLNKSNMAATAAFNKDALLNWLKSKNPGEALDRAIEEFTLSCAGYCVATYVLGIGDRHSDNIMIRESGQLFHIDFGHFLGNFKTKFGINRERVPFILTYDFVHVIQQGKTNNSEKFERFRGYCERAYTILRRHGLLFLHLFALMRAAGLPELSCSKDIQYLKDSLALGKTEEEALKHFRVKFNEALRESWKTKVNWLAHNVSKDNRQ
PI3Kδ (PI3Kd), sequence (P27986 whole entry partner, canonical isoform): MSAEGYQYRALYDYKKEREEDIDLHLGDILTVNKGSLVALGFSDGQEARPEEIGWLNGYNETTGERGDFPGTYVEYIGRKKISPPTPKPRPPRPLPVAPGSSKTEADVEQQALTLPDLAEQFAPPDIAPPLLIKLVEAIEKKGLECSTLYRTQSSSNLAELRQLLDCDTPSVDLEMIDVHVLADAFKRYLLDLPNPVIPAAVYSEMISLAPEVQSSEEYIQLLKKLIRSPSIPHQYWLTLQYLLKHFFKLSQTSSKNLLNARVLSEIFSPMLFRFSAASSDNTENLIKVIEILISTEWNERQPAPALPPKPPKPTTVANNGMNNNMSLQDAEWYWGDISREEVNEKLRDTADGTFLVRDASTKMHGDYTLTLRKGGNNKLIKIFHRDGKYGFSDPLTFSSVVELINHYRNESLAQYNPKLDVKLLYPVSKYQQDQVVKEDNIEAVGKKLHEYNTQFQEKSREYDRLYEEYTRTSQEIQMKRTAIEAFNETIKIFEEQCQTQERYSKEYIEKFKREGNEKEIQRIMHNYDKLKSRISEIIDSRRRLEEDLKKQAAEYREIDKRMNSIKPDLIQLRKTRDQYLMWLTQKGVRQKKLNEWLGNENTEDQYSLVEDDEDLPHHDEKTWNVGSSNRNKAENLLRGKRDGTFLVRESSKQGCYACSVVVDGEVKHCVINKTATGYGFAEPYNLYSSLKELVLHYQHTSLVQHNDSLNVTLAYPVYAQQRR
Description: Compounds were screened for their ability to inhibit PI3Kα (PI3Ka), PI3Kβ (PI3Kb), PI3Kδ (PI3Kd) and PI3Kγ (PI3Kg) using a cell-free based PI3K HTRF™ assay (Millipore, ref. #33-017).
PI-3 Kinase HTRF kit (ref. #33-037) and the different PI3K recombinant isoforms (ref. #14-602, ref. #14-603, ref. #14-604, ref. #15-558 for Alpha, Beta, Delta and Gamma respectively) were purchased at Millipore (expressed in insect cells). ATP was purchased at Sigma Aldrich (ref. #A7699).
The compounds were pre-incubated with the enzyme for 30 min before starting of the catalytic reaction. [PIP2] was used at its Km. […] Time of assay and [Enzyme] were optimized to work in the linear range. Stop and Detection mixtures were used as specified in the Millipore PI-3 Kinase kit.
Reaction time and enzyme concentration in the assay will depend of each batch.
All experiments were analysed using Activity Base software from IDBS and the four-parameter log equation.
In general, pIC50 refers to the negative decadic logarithm of the IC50, by convention in mol/L. Regarding `C[C@H](Nc1ncnc(N)c1-c1nnn[nH]1)c1nn2cccc2c(=O)n1-c1ccccc1` [Example 1, (S)-2-(1-(6-Amino-5-(1H-tetrazol-5-yl)pyrimidin-4-ylamino)ethyl)-3-phenylpyrrolo[1,2-f][1,2,4]triazin-4(3H)-one], the pIC50 is 7.82.

For the compound `C[C@H](Nc1ncnc(N)c1-c1nccs1)c1nn2cccc2c(=O)n1-c1ccccc1` [Example 2, (S)-2-(1-((6-Amino-5-(thiazol-2-yl)pyrimidin-4-yl)amino)ethyl)-3-phenylpyrrolo[2,1-f][1,2,4]triazin-4(3H)-one], the pIC50 was 7.66.

Regarding `C[C@H](Nc1ncnc(N)c1-c1ccc(N)nc1)c1nn2cccc2c(=O)n1-c1ccccc1` [Example 3, (S)-2-(1-((6-Amino-5-(6-aminopyridin-3-yl)pyrimidin-4-yl)amino)ethyl)-3-phenylpyrrolo[2,1-f][1,2,4]triazin-4(3H)-one], the negative-log IC50 (pIC50) was 7.40.

`C[C@H](Nc1ncnc(N)c1-c1cnn(CCO)c1)c1nn2cccc2c(=O)n1-c1ccccc1` [Example 5, (S)-2-(1-((6-Amino-5-(1-(2-hydroxyethyl)-1H-pyrazol-4-yl)pyrimidin-4-yl)amino)ethyl)-3-phenylpyrrolo[2,1-f][1,2,4]triazin-4(3H)-one]: the pIC50 is 7.77.

In the case of `C[C@H](Nc1ncnc(N)c1-c1cc(O)cc(F)c1)c1nn2cccc2c(=O)n1-c1ccccc1` [Example 7, (S)-2-(1-((6-Amino-5-(3-fluoro-5-hydroxyphenyl)pyrimidin-4-yl)amino)ethyl)-3-phenylpyrrolo[2,1-f][1,2,4]triazin-4(3H)-one], the negative-log IC50 (pIC50) is 7.96.

Turning to `Cc1ccn2nc([C@H](C)Nc3ncnc(N)c3-c3ccc4cc[nH]c4c3)n(-c3ccccc3)c(=O)c12` [Example 15, (S)-2-(1-((6-Amino-5-(1H-indol-6-yl)pyrimidin-4-yl)amino)ethyl)-5-methyl-3-phenylpyrrolo[2,1-f][1,2,4]triazin-4(3H)-one], the negative logarithm of the IC50 (pIC50) is 8.52.

On to `Cc1ccn2nc([C@H](C)Nc3ncnc(N)c3-c3cnc(N)nc3)n(-c3ccccc3)c(=O)c12` [Example 16, (S)-2-(1-((2′,6-Diamino-[5,5′-bipyrimidin]-4-yl)amino)ethyl)-5-methyl-3-phenylpyrrolo[2,1-f][1,2,4]triazin-4(3H)-one], for which the negative-log IC50 (pIC50) is 8.30.

With `N#Cc1c(N)ncnc1N[C@@H](CCOCc1ccccc1)c1nn2ccc(C#N)c2c(=O)n1-c1cc(F)cc(F)c1` [Example 17, (S)-2-(1-((6-Amino-5-cyanopyrimidin-4-yl)amino)-3-(benzyloxy)propyl)-3-(3,5-difluorophenyl)-4-oxo-3,4-dihydropyrrolo[2,1-f][1,2,4]triazine-5-carbonitrile], the negative-log IC50 (pIC50) is 8.22.

Turning to `N#Cc1c(N)ncnc1N[C@@H](CCSCc1ccccc1)c1nn2cccc2c(=O)n1-c1ccccc1` [Example 19, (S)-4-Amino-6-((3-(benzylthio)-1-(4-oxo-3-phenyl-3,4-dihydropyrrolo[2,1-f][1,2,4]triazin-2-yl)propyl)amino)pyrimidine-5-carbonitrile], the pIC50 was 7.02.

For `N#Cc1c(N)ncnc1N[C@@H](CCOc1ccccc1)c1nn2cccc2c(=O)n1-c1ccccc1` [Example 20, (S)-4-Amino-6-((1-(4-oxo-3-phenyl-3,4-dihydropyrrolo[2,1-f][1,2,4]triazin-2-yl)-3-phenoxypropyl)amino)pyrimidine-5-carbonitrile], the pIC50 was 9.00.

On to `COc1ncc(-c2c(N)ncnc2N[C@@H](C)c2nn3ccc(C)c3c(=O)n2-c2ccccc2)cc1NS(=O)(=O)c1ccc(F)cc1` [Example 22, (S)—N-(5-(4-Amino-6-((1-(5-methyl-4-oxo-3-phenyl-3,4-dihydropyrrolo[2,1-f][1,2,4]triazin-2-yl)ethyl)amino)pyrimidin-5-yl)-2-methoxypyridin-3-yl)-4-fluorobenzenesulfonamide], for which the negative logarithm of the IC50 (pIC50) was 7.92.

In the case of `N#Cc1ccn2nc([C@H](CCOCc3ccccc3)Nc3ncnc(N)c3-c3cc(O)cc(F)c3)n(-c3cc(F)cc(F)c3)c(=O)c12` [Example 24, (S)-2-(1-((6-Amino-5-(3-fluoro-5-hydroxyphenyl)pyrimidin-4-yl)amino)-3-(benzyloxy)propyl)-3-(3,5-difluorophenyl)-4-oxo-3,4-dihydropyrrolo[2,1-f][1,2,4]triazine-5-carbonitrile], the negative logarithm of the IC50 (pIC50) is 7.01.

Consider `Cc1ccn2nc([C@H](C)Nc3ncnc4[nH]cc(-c5cc(O)cc(F)c5)c34)n(-c3ccccc3)c(=O)c12` [Example 27, (S)-2-(1-((5-(3-Fluoro-5-hydroxyphenyl)-7H-pyrrolo[2,3-d]pyrimidin-4-yl)amino)ethyl)-5-methyl-3-phenylpyrrolo[2,1-f][1,2,4]triazin-4(3H)-one], for which the negative-log IC50 (pIC50) is 9.00.

In the case of `Cc1ccn2nc([C@H](C)Nc3ncnc(N)c3-c3cc(O)cc(C(F)(F)F)c3)n(-c3ccccc3)c(=O)c12` [Example 28, (S)-2-(1-((6-Amino-5-(3-hydroxy-5-(trifluoromethyl)phenyl)pyrimidin-4-yl)amino)ethyl)-5-methyl-3-phenylpyrrolo[2,1-f][1,2,4]triazin-4(3H)-one], the negative logarithm of the IC50 (pIC50) is 8.30.

Turning to `C[C@H](Nc1ncnc(N)c1-c1cc(O)cc(F)c1)c1nn2ccc(Sc3ccccc3)c2c(=O)n1-c1ccccc1` [Example 34, (S)-2-(1-((6-Amino-5-(3-fluoro-5-hydroxyphenyl)pyrimidin-4-yl)amino)ethyl)-3-phenyl-5-(phenylthio)pyrrolo[2,1-f][1,2,4]triazin-4(3H)-one], the pIC50 was 7.92.

Take `Cc1ccn2nc([C@H](C)Nc3ncncc3-c3cc(O)cc(F)c3)n(-c3ccccc3)c(=O)c12` [Example 35, (S)-2-(1-((5-(3-Fluoro-5-hydroxyphenyl)pyrimidin-4-yl)amino)ethyl)-5-methyl-3-phenylpyrrolo[2,1-f][1,2,4]triazin-4(3H)-one]: the pIC50 was 8.40.

In the case of `Cc1ccn2nc([C@H](C)Nc3ncnc4[nH]cc(C(=O)OCc5ccccc5)c34)n(-c3ccccc3)c(=O)c12` [Example 37, (S)-Benzyl 4-((1-(5-methyl-4-oxo-3-phenyl-3,4-dihydropyrrolo[2,1-f][1,2,4]triazin-2-yl)ethyl)amino)-7H-pyrrolo[2,3-d]pyrimidine-5-carboxylate], the pIC50 is 8.30.

For `COc1cccc(Cc2ccn3nc([C@H](C)Nc4ncnc(N)c4C#N)n(-c4ccccc4)c(=O)c23)c1` [Example 40, (S)-4-Amino-6-((1-(5-(3-methoxybenzyl)-4-oxo-3-phenyl-3,4-dihydropyrrolo[2,1-f][1,2,4]triazin-2-yl)ethyl)amino)pyrimidine-5-carbonitrile], the negative-log IC50 (pIC50) is 7.52.

On to `Cc1ccn2nc([C@H](C)Nc3ncnc4[nH]cc(Cc5cccc(O)c5)c34)n(-c3ccccc3)c(=O)c12` [Example 43, (S)-2-(1-((5-(3-Hydroxybenzyl)-7H-pyrrolo[2,3-d]pyrimidin-4-yl)amino)ethyl)-5-methyl-3-phenylpyrrolo[2,1-f][1,2,4]triazin-4(3H)-one], for which the pIC50 was 8.52.

As to `COc1ncc(-c2c[nH]c3ncnc(N[C@@H](C)c4nn5ccc(C)c5c(=O)n4-c4ccccc4)c23)cc1NS(C)(=O)=O` [Example 45, (S)—N-(2-Methoxy-5-(4-((1-(5-methyl-4-oxo-3-phenyl-3,4-dihydropyrrolo[2,1-f][1,2,4]triazin-2-yl)ethyl)amino)-7H-pyrrolo[2,3-d]pyrimidin-5-yl)pyridin-3-yl)methanesulfonamide], the pIC50 is 8.70.

Regarding `Cc1ccn2nc([C@H](C)Nc3ncnc4[nH]cc(-c5cccc6[nH]ncc56)c34)n(-c3ccccc3)c(=O)c12` [Example 52], the pIC50 is 9.00.

On to `Cc1ccn2nc([C@H](C)Nc3ncnc4sccc34)n(-c3ccccc3)c(=O)c12` [Example 59, (S)-5-Methyl-3-phenyl-2-(1-(thieno[2,3-d]pyrimidin-4-ylamino)ethyl)pyrrolo[2,1-f][1,2,4]triazin-4(3H)-one], for which the pIC50 is 8.00.

Regarding `Cc1ccn2nc([C@H](C)Nc3ncnc(N)c3Cc3cccc(O)c3)n(-c3ccccc3)c(=O)c12` [Example 64, (S)-2-(1-((6-Amino-5-(3-hydroxybenzyl)pyrimidin-4-yl)amino)ethyl)-5-methyl-3-phenylpyrrolo[2,1-f][1,2,4]triazin-4(3H)-one], the pIC50 was 7.80.

With `C[C@H](Nc1ncnc(N)c1C#N)c1nn2ccc(Cc3cccc(O)c3)c2c(=O)n1-c1ccccc1` [Example 74, (S)-4-Amino-6-((1-(5-(3-hydroxybenzyl)-4-oxo-3-phenyl-3,4-dihydropyrrolo[2,1-f][1,2,4]triazin-2-yl)ethyl)amino)pyrimidine-5-carbonitrile], the pIC50 was 7.44.

As to `Cc1ccn2nc([C@H](C)Nc3ncnc4[nH]cc(-c5cc(NS(C)(=O)=O)cc(N(C)C)c5)c34)n(-c3ccccc3)c(=O)c12` [Example 76, (S)—N-(3-(Dimethylamino)-5-(4-((1-(5-methyl-4-oxo-3-phenyl-3,4-dihydropyrrolo[2,1-f][1,2,4]triazin-2-yl)ethyl)amino)-7H-pyrrolo[2,3-d]pyrimidin-5-yl)phenyl)methanesulfonamide], the negative logarithm of the IC50 (pIC50) was 9.10.

Consider `Cc1ccn2nc([C@H](C)Nc3ncnc4[nH]cc(Cc5cc(O)cc(F)c5)c34)n(-c3ccccc3)c(=O)c12` [Example 78, (S)-2-(1-((5-(3-Fluoro-5-hydroxybenzyl)-7H-pyrrolo[2,3-d]pyrimidin-4-yl)amino)ethyl)-5-methyl-3-phenylpyrrolo[2,1-f][1,2,4]triazin-4(3H)-one], for which the pIC50 is 9.40.

On to `Cc1ccn2nc([C@H](C)Nc3ncnc4[nH]cc(C#Cc5ccccc5)c34)n(-c3ccccc3)c(=O)c12` [Example 80, (S)-5-Methyl-3-phenyl-2-(1-((5-(phenylethynyl)-7H-pyrrolo[2,3-d]pyrimidin-4-yl)amino)ethyl)pyrrolo[2,1-f][1,2,4]triazin-4(3H)-one], for which the pIC50 is 9.52.

`Cc1ccn2nc([C@H](C)Nc3ncnc4[nH]cc(-c5cccc(S(=O)(=O)N6CCOCC6)c5)c34)n(-c3ccccc3)c(=O)c12` [Example 85, (S)-5-Methyl-2-(1-((5-(3-(morpholinosulfonyl)phenyl)-7H-pyrrolo[2,3-d]pyrimidin-4-yl)amino)ethyl)-3-phenylpyrrolo[2,1-f][1,2,4]triazin-4(3H)-one]: the negative logarithm of the IC50 (pIC50) is 9.52.
